{
  "source": "patent US7375079B2",
  "about": "(priority 1999, dated 2008)",
  "target": "BttxB (Clostridium botulinum, UniProt P10844)",
  "sequence (P10844 2-441 limits assumed)": "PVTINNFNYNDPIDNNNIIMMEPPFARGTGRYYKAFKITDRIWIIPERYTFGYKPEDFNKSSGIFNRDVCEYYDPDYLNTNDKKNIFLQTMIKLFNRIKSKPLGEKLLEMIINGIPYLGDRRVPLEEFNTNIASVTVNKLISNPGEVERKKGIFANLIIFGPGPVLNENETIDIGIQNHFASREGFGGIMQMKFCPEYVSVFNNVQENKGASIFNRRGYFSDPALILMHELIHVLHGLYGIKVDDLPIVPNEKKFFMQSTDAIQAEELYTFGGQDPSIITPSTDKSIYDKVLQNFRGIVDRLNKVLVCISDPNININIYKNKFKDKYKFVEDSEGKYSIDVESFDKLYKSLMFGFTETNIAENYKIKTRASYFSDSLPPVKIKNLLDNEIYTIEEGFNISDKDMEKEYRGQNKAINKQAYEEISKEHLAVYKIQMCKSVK",
  "type": "biochemical",
  "data": [
    {"compound": "CC(C)C[C@H](NC(=O)CNC(=O)[C@H](C)NC(=O)[C@H](CCCNC(=N)N)NC(=O)[C@H](CO)NC(=O)[C@H](CO)NC(=O)[C@H](CCCNC(=N)N)NC(=O)[C@@H](NC(=O)[C@H](CCCCN)NC(=O)[C@H](C)NC(=O)[C@H](CCCCN)NC(=O)[C@H](C)NC(=O)[C@H](CCCNC(=N)N)NC(=O)[C@@H](NC(=O)[C@H](CCCCN)NC(=O)CNC(=O)CNC(=O)[C@H](CCC(N)=O)NC(=O)[C@H](CCCCN)NC(=O)CNC(=O)[C@H](CCCNC(=N)N)NC(=O)CNC(=O)[C@H](C)N)C(C)C)[C@@H](C)O)C(=O)N[C@@H](CCC(N)=O)C(=O)N[C@@H](Cc1ccccc1)C(=O)N1CCC[C@H]1C(=O)N[C@H](C(=O)NCC(=O)N[C@@H](CCCNC(=N)N)C(=O)N[C@H](C(=O)N[C@@H](Cc1c[nH]cn1)C(=O)N[C@@H](CCCNC(=N)N)C(=O)N[C@@H](CC(C)C)C(=O)N[C@@H](CC(C)C)C(=O)N[C@@H](CCCNC(=N)N)C(=O)N[C@@H](CCCCN)C(=O)NCC(=O)N[C@@H](CC(N)=O)C(=O)N[C@@H](Cc1ccc(O)cc1)C(=O)O)C(C)C)C(C)C", "note": "[B-I]", "values": [
      {"measurement": "substrate of BttxB or not", "result": "not a substrate"}
    ]},
    {"compound": "RPKPQQFFGLM [Substance P]", "values": [
      {"measurement": "inhibition of BttxB (in words)", "result": "inhibitor"}
    ]},
    {"compound": "AGRGKQGGKVRAKAKTRSSRAGLQFPVGRVHRLLRK [Peptide 36]", "values": [
      {"measurement": "effectiveness as inhibitor of BttxB activity relative to B-I", "result": "about 50%"}
    ]}
  ]
}
